This passage reports GI50 and TGI results from PubChem BioAssay (NCI).

Some test systems named below: ACHN renal; HCT-15 colon; IGROV1 ovarian; KM12 colon; SF-295 CNS; SF-539 CNS; SNB-75 CNS; SW-620 colon; U251 CNS; UACC-257 melanoma.
What all share (experiment): inhibition of tumour cell growth, NCI panel, 48 h

Several values for one entry are separate records, joined by “and”; a condition that tells them apart may be missing. Equal entries are not always repeated.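 Dose response: 5 concentrations. Exposure: 48 h. Format: 96-well plates. Endpoint: linear interpolation; highest concentration if not reached. At the GI50, growth is halved. TGI is the concentration that stops growth completely.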 A value given as a limit tells only on which side of the number the result lay.

For `Cc1ccc(CN2CCC(C(=O)Nc3ccc(-c4cc5ccccc5[nH]4)cc3)CC2)o1`, the GI50 in the test with ACHN renal is more than 100 µM; in the test with HCT-15 colon it was more than 100 µM; with IGROV1 ovarian, more than 100 µM; in the test on KM12 colon it was 83.9 µM; with SF-295 CNS, 71 µM; in the test with SF-539 CNS, more than 100 µM. Moreover, the GI50 with SNB-75 CNS is 12.7 µM; with SW-620 colon, more than 100 µM; in the test with U251 CNS, 21 µM; in the test with UACC-257 melanoma, more than 100 µM. Besides, the TGI in the test with ACHN renal, in the test with HCT-15 colon, in the test on IGROV1 ovarian, in the test with KM12 colon, in the test on SF-295 CNS and in the test with SF-539 CNS was more than 100 µM throughout. The TGI is 33.1 µM in the test on SNB-75 CNS, more than 100 µM in the test with SW-620 colon, more than 100 µM in the test with U251 CNS and more than 100 µM in the test with UACC-257 melanoma.

Turning to `CCCC1C(=O)CCc2c(OC)ccc(OC)c21` (stereo unspecified), the TGI in the test with ACHN renal, with HCT-15 colon, with IGROV1 ovarian, in the test on KM12 colon, with SF-295 CNS and with SF-539 CNS was more than 100 µM throughout. The TGI with SNB-75 CNS, in the test with SW-620 colon, in the test with U251 CNS and in the test on UACC-257 melanoma was more than 100 µM throughout.

As for `CCCCCCCCCCCCCC(=O)OC(/C=C/C(C)C)C(O)C(O)C(OC)C(=O)NC1CCCCN(C)C1=O` (stereo unspecified), the TGI in the test with ACHN renal was 5.14 µM and > 49 µM; in the test with HCT-15 colon it was 7.55 µM and > 49 µM; in the test with IGROV1 ovarian, 5.9 µM and > 49 µM; with KM12 colon, 7.49 µM and > 49 µM; in the test on SF-295 CNS it was 5.97 µM and > 49 µM; in the test with SF-539 CNS it was 7.18 µM and > 49 µM. Also, the TGI was 8.6 µM and > 49 µM in the test with SNB-75 CNS; 6.06 µM and > 49 µM with SW-620 colon; 6.43 µM and > 49 µM in the test on U251 CNS; 18.3 µM and > 49 µM with UACC-257 melanoma. Further, the GI50 in the test on SW-620 colon and in the test on UACC-257 melanoma was more than 49 µM in each case.

Take `CN1CCN(C2=NCCO2)CC1`: the TGI in the test with ACHN renal, in the test on HCT-15 colon, in the test on IGROV1 ovarian, with KM12 colon, with SF-295 CNS and in the test on SF-539 CNS was more than 100 µM each time. Further, the TGI in the test with SNB-75 CNS, with SW-620 colon, in the test with U251 CNS and with UACC-257 melanoma was more than 100 µM throughout.

On to `Cc1ccnc2c1ccc1c(C)ccnc12`, for which the GI50 in the test with ACHN renal is 0.357 µM; in the test with HCT-15 colon, 0.383 µM; in the test on IGROV1 ovarian, 0.471 µM; in the test on KM12 colon, 0.504 µM; in the test on SF-295 CNS it was 0.371 µM; with SF-539 CNS, 0.316 µM. For the same compound, the GI50 was 0.84 µM with SNB-75 CNS, 0.429 µM in the test with SW-620 colon, 0.419 µM in the test on U251 CNS and 0.508 µM in the test with UACC-257 melanoma. Moreover, the TGI turned out to be 10.5 µM with ACHN renal; 10.4 µM with HCT-15 colon; 13.6 µM in the test on IGROV1 ovarian; 12 µM with KM12 colon; 11.7 µM in the test on SF-295 CNS; 5.06 µM in the test on SF-539 CNS. In addition, the TGI in the test with SNB-75 CNS came to 14.6 µM; in the test on SW-620 colon, 15.9 µM; in the test on U251 CNS, 11.5 µM; in the test with UACC-257 melanoma it was 7.6 µM.

In the case of `C[C@@H](Oc1cc(-n2cnc3ccc(CN4CCN(C)CC4)cc32)sc1C(N)=O)c1ccccc1C(F)(F)F`, the GI50 in the test on ACHN renal is 0.442 µM and 0.156 µM; in the test on HCT-15 colon, 0.045 µM and 0.0432 µM; with IGROV1 ovarian it was 0.0621 µM and 0.0336 µM; in the test with KM12 colon, < 0.012 µM and 0.00556 µM; in the test with SF-295 CNS, 0.0486 µM; with SF-539 CNS, 0.0369 µM and 0.0302 µM. Moreover, the GI50 with SNB-75 CNS is 0.0363 µM and 0.0249 µM; in the test on SW-620 colon it was < 0.01 µM and 0.00462 µM; in the test on U251 CNS, < 0.0137 µM and 0.0255 µM; in the test on UACC-257 melanoma it was 2.03 µM. Further, the TGI in the test on ACHN renal is 15.8 µM and > 10 µM; with HCT-15 colon, 12.9 µM and > 10 µM; in the test on IGROV1 ovarian, 15.1 µM and > 10 µM; in the test on KM12 colon it was 12.7 µM and > 10 µM; in the test on SF-295 CNS, more than 10 µM; in the test on SF-539 CNS, 2.09 µM. The TGI in the test with SW-620 colon was 12.9 µM and > 10 µM; with U251 CNS, 15.6 µM and > 10 µM; in the test on UACC-257 melanoma, more than 10 µM.

Regarding `O=C1CC(NC(=O)C(F)(F)F)c2c(Br)sc(N3CCNCC3)c21` (stereo unspecified), the TGI in the test with ACHN renal, with HCT-15 colon, in the test on IGROV1 ovarian, in the test with KM12 colon, in the test on SF-295 CNS and in the test with SF-539 CNS was more than 100 µM each time. In addition, the TGI with SNB-75 CNS, with SW-620 colon, with U251 CNS and in the test with UACC-257 melanoma was more than 100 µM in each case.

Consider `O=C(Nc1ccc(-n2ccc3c(NC(=O)c4ccccc4)nccc32)cc1)c1ccc(Cl)c(C(F)(F)F)c1`, for which the GI50 is 0.487 µM in the test with ACHN renal; 0.0275 µM in the test on HCT-15 colon; 1.55 µM in the test on IGROV1 ovarian; 0.351 µM with KM12 colon; 0.293 µM in the test on SF-295 CNS; 0.273 µM with SF-539 CNS. The GI50 is 0.625 µM in the test with SNB-75 CNS, 0.335 µM in the test with SW-620 colon, 0.095 µM in the test on U251 CNS and 6.73 µM in the test on UACC-257 melanoma. For the same compound, the TGI in the test on ACHN renal is 15.4 µM; with HCT-15 colon it was 2.83 µM; with IGROV1 ovarian, 15.3 µM; in the test on KM12 colon, 6.26 µM; with SF-295 CNS, 10 µM; with SF-539 CNS, 14.4 µM. Besides, the TGI was 16.5 µM in the test on SNB-75 CNS, 1.44 µM in the test with SW-620 colon, 5.3 µM in the test on U251 CNS and 27.2 µM with UACC-257 melanoma.

For `COc1cccc(-c2cc(-c3cccc(NS(C)(=O)=O)c3)nc(N)c2C#N)c1O`, the GI50 in the test with ACHN renal is 0.846 µM; with HCT-15 colon, 0.0824 µM; with IGROV1 ovarian it was 0.0577 µM; in the test on KM12 colon, 0.107 µM; with SF-295 CNS, 0.0431 µM; in the test with SF-539 CNS it was 0.154 µM. Moreover, the GI50 with SNB-75 CNS was 0.0797 µM; in the test with SW-620 colon, 0.0904 µM; in the test on U251 CNS, 0.127 µM; in the test on UACC-257 melanoma, 0.471 µM. Moreover, the TGI in the test on ACHN renal is more than 100 µM; in the test on HCT-15 colon it was more than 100 µM; with IGROV1 ovarian it was more than 86.3 µM; in the test on KM12 colon, more than 100 µM; in the test on SF-295 CNS, 0.752 µM; with SF-539 CNS, more than 100 µM. For the same compound, the TGI in the test on SNB-75 CNS is 5.15 µM; in the test on SW-620 colon, more than 100 µM; with U251 CNS, more than 100 µM; in the test with UACC-257 melanoma it was more than 100 µM.
